Measurements from patent US20220031690A1, “ANTI-NEURODEGENERATIVE DISEASE AGENT” (Hayashibara Co., Ltd., priority 2018, published 2022).

Experiments:
PC12-HS cells [1] = experiment: Intracellular ROS production after hydrogen peroxide stimulation (CM-H2DCFDA); format: cell-based, rat; conditions: for intercellular ROS production (%): 50 μM hydrogen peroxide only = 100%; for inhibitory effect on intercellular ROS production (in words): 125 to 1,000 nM
Description: From the above-mentioned Experiment 1-1 and Experiment 1-2, it was shown that NK-5 (Chemical formula 2), NK-5 analogs (Chemical formula 3 and Chemical formula 5) and NK-6 (Chemical formula 7) have strong neurocyte growth acceleration activity and neurite-outgrowth promoting activity, and therefore, it was verified by the following experiment whether these compounds also act effectively on oxidative damage to neurocyte. That is, PC12-HS cells were oxidatively stimulated with hydrogen peroxide, and the intracellular ROS generated at that time was quantified using a fluorescent reagent, and the inhibitory effect of the dye compounds on intercellular ROS production, when an external oxidative stress was applied, was evaluated.
Similar to Experiment 1-1 and Experiment 1-2, precultured PC12-HS cells were cultured for 24 hours with test compounds diluted in culture medium at final concentrations of 125, 250, 500 and 1000 nM. Thereafter, the culture supernatant was removed, the cells were washed with Hank's buffer (60 μM CaCl2), 400 μM MgSO4, 500 μM MgCl2), and then 100 μl of ROS detection reagent CM-H2DCFDA (commercialized by FUJIFILM Wako Pure Chemical Corporation, Tokyo, Japan) adjusted to 5 μM with the same buffer, was added to each well. The PC12-HS cells were cultured at 37° C. for 30 minutes to allow the cells to take up CM-H2DCFDA, and then, the solution containing CM-H2DCFDA was removed. Then, the cells were washed with Hank's buffer, and then added 50 μM of hydrogen peroxide (commercialized by FUJIFILM Wako Pure Chemical Corporation, Tokyo, Japan) diluted with Hank's buffer in a volume 100 μl/well and stimulated at 37° C. for 2 hours. The solution containing hydrogen peroxide was removed, then an 200 μl of Hank's buffer was added to each well, and the cells were measured for fluorescent intensity at a wavelength of 492-527 nm, which is an index of intracellular ROS production, by a fluorescence microplate reader. In addition, after measuring the fluorescence intensity, the cells were fixed by adding 20 μl of glutaraldehyde to each well, and the amount of methylene blue dye uptake was measured as an absorbance at 650 nm, according to a conventional method, the result was used as an index of the number of living cells. The amount of ROS production per cell was indicated by the value that fluorescence intensity (492-527 nm) was divided by the absorbance at 650 nm in each well. The amount of ROS production per cell calculated from cells to which only hydrogen peroxide was added without containing the test compound as a negative control, was set as 100%, and the relative value when the test compound was added was determined, and is shown in Table 3, as the ROS production rate (%) per cell of each well. Measurements were performed for each concentration of each test compound in triplicate, and the mean values were described.

PC12-HS cells [2] = experiment: Evaluation method B: neurite-outgrowth promoting activity in the presence of NGF; format: cell-based, rat; conditions: for Neurite-outgrowth rate (%) / Action on PC12-HS neurite-outgrowth promotion (500 ng/ml): NGF 10 ng/ml; for Action on PC12-HS neurite-outgrowth promotion (500 ng/ml): 3 days, class of neurite-outgrowth rate; for neurite-outgrowth promoting activity (in words): 200 and 1,000 nM, comment on Table 2
Description: As a model of the nerve cell, the NGF (nerve growth factor) highly sensitive strain of PC12 cell derived from the rat adrenal pheochromocytoma (hereinafter referred to as “PC12-HS cell”; JCRB cell bank, National Research and Development Institute of Health and Nutrition), which has been widely used as a suitable model for research on human neurodegenerative disease, was used. As the test compound, […] of trimethine cyanine dye compounds; NK-5 (Chemical formula 2), NK-36 (Chemical formula 3), NK-44 (Chemical formula 5) and dye compounds represented by Chemical formulae 12 to 18, and NK-6 (Chemical formula 7), which is a monomethine cyanine dye, were selected. In addition, two kinds of ethylene cross-linked dyes (Chemical formulae 19 and 20), 15 kinds of monomethine cyanine dyes (Chemical formulae 21 to 35), and seven kinds of trimethine cyanine dyes (Chemical formulae 36 to 42), which were expected to have a good neurocyte growth acceleration activity and/or neurite-outgrowth promoting activity in the screening disclosed in Patent literature 6, were also re-evaluated for comparison. The Chemical formulae 12 to 42 are shown below.
The cyanine dye compounds subjected to the test (purity 97% by mass or more, synthesized by Hayashibara Co., Ltd., Okayama, Japan) were individually dissolved in DMSO (product number “D8418”, commercialized by SIGMA Corporation) at a concentration of 5 mg/ml, and the solutions were then filtered through DMSO-resistant membrane (“Millex-LGS LLG025SS”, commercialized by Millipore Corporation) and stored at 25° C. in a dark condition. At the time of use, they were further diluted with Dulbecco's Medium (hereinafter, abbreviated as “D-MEM medium”, commercialized by Nissui Pharmaceutical Co., Ltd.) supplemented by 10% by volume of fetal bovine serum (FBS), and subjected to the test.
As in the case of evaluation of neurocyte growth accelerating activity (Evaluation method A), 50 μl/well of each test compound solution, prepared by diluting with the culture medium to give a final concentration of 500 ng/ml, and the culture medium containing 20 ng/ml of mouse NGF (mouse derived, final concentration 10 ng/ml, commercialized by Chemicon International, Inc., CA, USA) (50 μl/well) were added to the precultured PC12-HS cells in each well, and then cultured for three days. Culture medium was removed on day 3 of culture, and cells were fixed by adding 100 μl/well of 10% by volume of glutaraldehyde and standing for 20 minutes at room temperature. As a negative control, PC12-HS cells, cultured for three days with culture medium, were fixed with glutaraldehyde similarly as above. Fixed cells were observed under a microscope to assess the neurite-outgrowth. The neurite-outgrowth rate (%) was determined by observing the cells using a microscope by adjusting the magnitude to give about 100 cells in one visual field, counting the number of cells having neurites twice or more in length of the cell body (major axis), dividing by the total number of cells in the same visual field, and multiplying by 100. Measurements were carried out at three points for each test compound. […] In this experiment, the neurite-outgrowth rate was 5% or less when NGF was added (final concentration 10 ng/ml) without the addition of the test compound.
The method was based on Experiment 1-1, except the concentrations of the test compounds were set to three doses of 40 nM, 200 nM and 1,000 nM for evaluation method A (neurocyte growth accelerating effect), and two doses of 200 nM and 1,000 nM for evaluation method B (neurite outgrowth promoting effect). Measurements were performed in triplicate for each concentration of each test compound in both evaluation methods A and B. The result of the evaluation method A was expressed as a cell proliferation rate (%) by determined a relative percentage (%) when the value of the negative control to which the test compound was not added, was regarded as 100%. […]

Row | Compound | intercellular ROS production (%) (PC12-HS cells [1]; 125 nM) | intercellular ROS production (%) (PC12-HS cells [1]; 250 nM) | intercellular ROS production (%) (PC12-HS cells [1]; 500 nM) | intercellular ROS production (%) (PC12-HS cells [1]; 1,000 nM) | inhibitory effect on intercellular ROS production (in words) (PC12-HS cells [1]) | Neurite-outgrowth rate (%) (PC12-HS cells [2]; 1.000 nM) | Neurite-outgrowth rate (%) (PC12-HS cells [2]; 200 nM) | Action on PC12-HS neurite-outgrowth promotion (500 ng/ml) (PC12-HS cells [2]) | neurite-outgrowth promoting activity (in words) (PC12-HS cells [2])
1 | CCN1C=CC(=CC=Cc2cc[n+](CC)c3ccccc23)c2ccccc21.[Br-] [NK-36] | 88 | 43.5 | 51 | 8.3 | suppressed the intercellular ROS production induced by hydrogen peroxide stimulation, in a concentration-dependent manner | 28.7 | 33.8 | ◯ (When the mean neurite-outgrowth rate was 25 to 44%, it was judged to be equivalent to the positive control NK-4 (“circle”)) | almost equivalent neurite-outgrowth promoting rate to NK-4
2 | CCCCN1C=CC(=CC=Cc2cc[n+](CCCC)c3ccccc23)c2ccccc21.[I-] [NK-44] | 75.4 | 65.11 | 34.1 | 27.1 | suppressed the intercellular ROS production induced by hydrogen peroxide stimulation, in a concentration-dependent manner | 22.9 | 29.3 | ◯ (When the mean neurite-outgrowth rate was 25 to 44%, it was judged to be equivalent to the positive control NK-4 (“circle”)) | almost equivalent neurite-outgrowth promoting rate to NK-4
3 | CCN1C=CC(=Cc2cc[n+](CC)c3ccccc23)c2ccccc21.[I-] [NK-6] | 108.6 | 81.2 | 69.8 | 66.2 | suppressed the intercellular ROS production induced by hydrogen peroxide stimulation, in a concentration-dependent manner | 41.5 | 32.6 | ⊚ (45% or more was judged to be more potent than NK-4 (“double circle”)) | stronger neurite-outgrowth promoting activity than NK-4
